Measurements from patent US7935806B2, “Method for performing in vitro diagnosis using gene regulation mechanisms and corresponding diagnosis kit” (Unisensor S.A., priority 2001, dated 2011).

How the values were obtained:
MetJ = MetJ (Escherichia coli, UniProt P0A8U6); details: in the presence of the co-repressor; cited from earlier work
avidin = molecular target: T1, avidin (Gallus gallus, UniProt P02701); details: non-covalent; cited from earlier work
T1 construct: The avidin is a tetrameric glycoprotein isolated from egg-white; from tissue; host or cells: egg-white
T1 sequence (P02701 25-152): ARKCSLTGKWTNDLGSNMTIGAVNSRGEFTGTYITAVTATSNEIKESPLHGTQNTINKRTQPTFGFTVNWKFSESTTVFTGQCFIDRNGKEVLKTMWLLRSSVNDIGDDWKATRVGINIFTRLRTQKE

tetR of class C = molecular target: T2, tetR of class C (Escherichia coli, UniProt P03039); type: binding, E. Coli C600; details: 25 ppb in honey, read with the naked eye
T2 construct: two primers have been selected for amplification by PCR of the gene which has then been cloned in a pet12a-expression plasmid; made in house; host or cells: E. coli HB101 carrying pT7po123; expression plasmid pet12a
T2 sequence (P03039 whole entry): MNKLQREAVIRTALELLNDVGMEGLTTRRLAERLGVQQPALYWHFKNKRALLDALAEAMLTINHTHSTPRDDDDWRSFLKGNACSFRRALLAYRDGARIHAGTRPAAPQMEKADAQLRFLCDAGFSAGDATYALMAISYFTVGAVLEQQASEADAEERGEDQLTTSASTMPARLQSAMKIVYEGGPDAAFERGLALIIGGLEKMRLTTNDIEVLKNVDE
Experimental: In the example showing the measurement of the concentration based on samples of honey, one unpurified part of serum obtained above is placed in the presence of one part of tetR receptor obtained above in 1.1.1, 15 parts of A-protein marked by means of particles of colloidal gold of 40 nm and one DO at 500 nm of 10 (available from Unisensor S.A., Liege, Belgium) and 20 parts of lyophilisation buffer (Tris 10 mM, pH 8, BSA 5 mg/ml, sucrose 10 g/l). This mixture is lyophilised for 20 hours.
To 1 gram of honey are added 3 ml of dilution buffer (for 1 litre, 2.73 g of Na2HPO4.2H2O, 1.65 g of citric acid, 7 g of BSA and 2.5 g of Tween-20, pH 5) and the solutin is stirred vigorously so as to obtain a homogeneous solution. 200 μl of this dilution of the sample of honey are then incubated in the presence of the lyophilisate prepared above (see Point 1.1.2.2). After 10 minutes of incubation at ambient temperature (±20° C.), the analysis strip described above at 1.3 is immersed in the solution. The final interpretation is made with the naked eye, after 15 minutes of incubation at ambient temperature.

Chain of MetJ (P0A8U6 2-105): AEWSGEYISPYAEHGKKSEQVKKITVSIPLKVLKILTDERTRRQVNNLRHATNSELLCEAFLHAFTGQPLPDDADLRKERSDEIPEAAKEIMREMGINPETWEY

Compound: C[S+](CC[C@H](N)C(=O)[O-])C[C@H]1O[C@@H](n2cnc3c(N)ncnc32)[C@H](O)[C@@H]1O (stereo partly drawn) [s-adenosylmethionine]
- increase of MetJ affinity for DNA (MetJ): more than 1,000 times

Compound: O=C(O)CCCC[C@@H]1SC[C@@H]2NC(=O)N[C@@H]21 [biotin]
- affinity of avidin sub-unit for biotin (Ka) (avidin): 10^15 M^−1

Compound: CN(C)[C@@H]1C(O)=C(C(N)=O)C(=O)[C@@]2(O)C(O)=C3C(=O)c4c(O)ccc(Cl)c4[C@@H](O)[C@H]3C[C@@H]12 [demedocycline]
- test result (test signal lower than control signal = positive) (tetR of class C): positive result
